Measured values published in patent publication US20250381181A1, “CANCER TREATMENT AGENT INCLUDING MALT1 INHIBITING DRUG AS ACTIVE INGREDIENT” (ONO PHARMACEUTICAL CO., LTD., priority 2022, published 2025).

How the values were obtained:
[1] = test system: Human CD79 mutation-positive diffuse large B-cell lymphoma cell line; assay: Combination of Compound A and each anticancer agent, cell viability (Cell Counting Kit-8); settings: combined treatment with Compound A (3, 10, 30 or 100 nmol/L); CD79 mutation-positive DLBCL; 6 days
Protocol: (§6) Human CD79 mutation-positive diffuse large B-cell lymphoma cell lines and human mantle cell lymphoma cell lines were used. The cells were subcultured using RPMI1640 containing 10% non-mobilized fetal bovine serum (hereinafter, the medium) under conditions of 5% CO2 and 37° C.
(§7) The cells suspended in the medium were seeded in 96 well plates at a density of 2500 or 5000 cells/100 μL per well. […] After completion of the culture, the number of surviving cells was measured using Cell Counting Kit-8 (DOJINDO) according to the procedure of the kit.

[2] = test system: Human mantle cell lymphoma cell line; assay: as above; settings: combined treatment with Compound A (3, 10, 30 or 100 nmol/L), 6 days
Protocol: as §6, §7

[3] = test system: human CD79 mutation-positive diffuse large B-cell lymphoma cell line; assay: Antitumor effect in mouse subcutaneous transplantation model; assay type: in vivo; settings: orally for 21 days; Compound A 10 mg/kg twice a day, Ibrutinib 10 mg/kg once a day; subcutaneous tumor in NOG mice
Protocol: A human CD79 mutation-positive diffuse large B-cell lymphoma cell line was used. The cells were subcultured using Iscove's modified Dulbecco's medium containing 20% inactivated calf serum and 0.5 mmol/L Monothioglycerol under conditions of 5% CO2 and 37° C.
The cells were suspended in HBSS:Matrigel=1:1 and implanted subcutaneously in the abdomen of 7-week-old female NOG mice at 1×10^6 cells/mouse. The tumor volume was measured using a caliper, and calculated by a calculation formula of tumor volume=(major tumor diameter×minor tumor diameter×minor tumor diameter)/2. At the time when the tumor volume reached about 120 mm^3, grouping was performed into 4 groups of 6 mice per group. Compound A was orally administered at a dose of 10 mg/kg twice a day for 21 days, and Ibrutinib was orally administered at a dose of 10 mg/kg once a day for 21 days. Also, the combined administration group was orally administered with 10 mg/kg of Compound A and 10 mg/kg of ibrutinib. The control group was orally administered with a 0.5% methylcellulose solution. After grouping, tumor volume measurements were performed twice a week. T/C (%) was used as an index of the antitumor effect.
Regarding the amount of tumor volume change during the administration period of each group, the combined antitumor effect of Compound A and Ibrutinib was analyzed by a statistical method of two-way ANOVA of EZR (ver. 1.54) software.

[4] = test system: Human CD79 mutation-positive DLBCL cell line; assay: Combination of Compound A and Btk inhibitor or Bcl-2 inhibitor, cell viability (Cell Counting Kit-8); assay type: cell-based; settings: combined treatment with Compound A (10, 30 or 100 nmol/L), 6 days
Description: (§1) Treatment concentrations of Compound A were 10, 30 or 100 nmol/L, and treatment concentrations of the Btk inhibitor and the Bcl-2 inhibitor were set between 0.3 to 300 nmol/L or 0.003 to 10 nmol/L, respectively.

Human MCL cell line = assay: as above; assay type: cell-based; settings: combined treatment with Compound A (10, 30 or 100 nmol/L), 6 days
Description: as §1

[5] = test system: Human CARD11 mutation-positive DLBCL cell line; assay: Combination of Compound A and Bcl-2 inhibitor, cell viability (Cell Counting Kit-8); assay type: cell-based; settings: combined treatment with Compound A (10, 30 or 100 nmol/L), 6 days
Description: as §1

[6] = test system: Human CD79 mutation-positive diffuse large B-cell lymphoma cell line 1; assay: Combined effect on cell viability, Compound A and Btk inhibitor (CellTiter-Glo, in vitro); assay type: cell-based; settings: combined treatment with Compound A
Protocol: (§2) Using Ibrutinib as a Btk inhibitor, the combined effect on cell viability with Compound A was evaluated in vitro.
(§3) After 6 days of culture from the addition, the cell viability was evaluated as follows.
(§4) Cell viability was evaluated by each treatment by measuring intracellular adenosine triphosphate (ATP) using CellTiter-Glo. That is, 100 μL of CellTiter-Glo solution per well was added to each well and incubated at room temperature for 15 minutes, and then chemiluminescence was measured. The average value of each combination was calculated from the obtained data, and a concentration reaction curve of the cell viability of each drug alone or in combination was created with the luminescence intensity in cells treated with DMSO alone as 100%.
(§5) The half maximal inhibitory concentration (IC50) for each drug was determined using median effect analysis software CalcuSyn 2.0 (CalcuSyn, Inc).

[7] = test system: Human CD79 mutation-positive diffuse large B-cell lymphoma cell line 2; assay: as above; assay type: cell-based; settings: combined treatment with Compound A, 6 days of culture
Protocol: as §2, §3, §4, §5

Compound	Combination index (CI) value, median [1]	Combination index (CI) value, median [2]	further results
NC(=O)c1cnc(N[C@@H]2CCCC[C@@H]2N)nc1Nc1cccc(-n2nccn2)c1 [PRT062607]	0.630	0.820	–
Irinotecan (SN-38)	0.993	0.903	–
CC(=O)Nc1cccc(-n2c(=O)n(C3CC3)c(=O)c3c(Nc4ccc(I)cc4F)n(C)c(=O)c(C)c32)c1 [Trametinib]	0.218	0.971	–
CS(=O)(=O)N1CCN(Cc2cc3nc(-c4cccc5[nH]ncc45)nc(N4CCOCC4)c3s2)CC1 [GDC-0941]	0.873	0.694	–
Nc1cc(F)ccc1NC(=O)c1ccc(CNC(=O)/C=C/c2cccnc2)cc1 [Tucidinostat]	0.756	0.668	–
CO[C@@H](C)c1c(NC(=O)Nc2cnc(-n3nccn3)c(C(F)(F)F)c2)cnc2ccc(Cl)nc12 [Compound A, (S)—N-(6-chloro-4-(1-methoxyethyl)-1,5-naphthyridin-3-yl)-N′-(6-(2H-1,2,3-triazol-2-yl)-5-(trifluoromethyl)pyridin-3-yl)urea]	–	–	T/C (%) [3]: 49.8%
COc1cccc2c1C(=O)c1c(O)c3c(c(O)c1C2=O)C[C@@](O)(C(=O)CO)C[C@@H]3O[C@H]1C[C@H](N)[C@H](O)[C@H](C)O1 [Doxorubicin]	0.953	0.932	–
O=C(CCCCCCC(=O)Nc1ccccc1)NO [Vorinostat]	0.930	0.866	–
CC#CC(=O)N1CC[C@@H](n2c(=O)n(-c3ccc(Oc4ccccc4)cc3)c3c(N)ncnc32)C1 [Tirabrutinib]	–	–	Combination index (CI) value, median [4]: 0.761; Combination index (CI) value, median (Human MCL cell line): 0.822
C[C@]12C=CC(=O)C=C1CC[C@@H]1[C@@H]2[C@@H](O)C[C@@]2(C)[C@H]1CC[C@]2(O)C(=O)CO [Prednisolone]	0.168	0.854	–
C=CC(=O)N1CCC([C@@H]2CCNc3c(C(N)=O)c(-c4ccc(Oc5ccccc5)cc4)nn32)CC1 [Zanubrutinib]	–	–	Combination index (CI) value, median [4]: 0.811; Combination index (CI) value, median (Human MCL cell line): 0.75
CN1CCC(c2ccccc2CC(C)(C)Nc2nc(N3CCOCC3)nc(-n3c(C(F)F)nc4ccccc43)n2)CC1 [Zandelisib]	0.494	0.698	–
CC#CC(=O)N1CCC[C@H]1c1nc(-c2ccc(C(=O)Nc3ccccn3)cc2)c2c(N)nccn12 [Acarabrutinib]	–	–	Combination index (CI) value, median [4]: 0.839; Combination index (CI) value, median (Human MCL cell line): 0.956
Cn1cc(C2=C(c3cn(C4CCN(Cc5ccccn5)CC4)c4ccccc34)C(=O)NC2=O)c2ccccc21 [Enzastaurin]	0.854	0.842	–
Nc1cccc2c1CN(C1CCC(=O)NC1=O)C2=O (stereo not drawn) [Lenalidomide]	0.736	0.190	–
O=C(c1ccc(Oc2ccccc2)cc1Cl)c1c[nH]c2ncnc(N[C@@H]3CC[C@@H](CO)OC3)c12 [ARQ-531]	–	–	Combination index (CI) value, median [4]: 0.701; Combination index (CI) value, median (Human MCL cell line): 0.928
CC[C@H](Nc1ncnc2[nH]cnc12)c1nc2cccc(F)c2c(=O)n1-c1ccccc1 [Idelalisib]	0.528	0.457	–
CC1(C)CCC(CN2CCN(c3ccc(C(=O)NS(=O)(=O)c4ccc(NCC5CCOCC5)c([N+](=O)[O-])c4)c(Oc4cnc5[nH]ccc5c4)c3)CC2)=C(c2ccc(Cl)cc2)C1 [Venetoclax]	–	–	Combination index (CI) value, median [4]: 0.5985; Combination index (CI) value, median (Human MCL cell line): 0.372; Combination index (CI) value, median [5]: 0.5995
Nc1cc(C(F)(F)F)c(-c2cc(N3CCOCC3)nc(N3CCOCC3)n2)cn1 [BKM120]	0.729	–	–
CO[C@H]1C[C@@H]2CC[C@@H](C)[C@@](O)(O2)C(=O)C(=O)N2CCCC[C@H]2C(=O)O[C@H]([C@H](C)C[C@@H]2CC[C@@H](OCCO)[C@H](OC)C2)CC(=O)[C@H](C)/C=C(\C)[C@@H](O)[C@@H](OC)C(=O)[C@H](C)C[C@H](C)/C=C/C=C/C=C/1C [Everolimus]	0.464	0.225	–
CN1CCN(c2nc(C3=C(c4c[nH]c5ccccc45)C(=O)NC3=O)c3ccccc3n2)CC1 [Sotrastaurin]	0.896	0.775	–
Cc1cc(-c2nc(C(=O)Nc3cc4oc(N5CCOCC5)nc4nc3N3CC[C@@H](O)C3)co2)ccn1 [CA-4948]	0.905	0.846	–
C=CC(=O)N1CCC[C@@H](n2nc(-c3ccc(Oc4ccccc4)cc3)c3c(N)ncnc32)C1 [Ibrutinib]	–	–	combination index (CI), median ([6]; cell line 1, 6 days of culture): 0.629; median of CI ([6]; in each cell line (cell lines 1 and 2), synergistic effect): less than 1; combination index (CI), median [7]: 0.504; T/C (%) [3]: 63.1%
C=C(c1ccc(C(=O)O)cc1)c1cc2c(cc1C)C(C)(C)CCC2(C)C [Bexarotene]	–	0.276	–
CC(=O)c1c(C)c2cnc(Nc3ccc(N4CCNCC4)cn3)nc2n(C2CCCC2)c1=O [Palbociclib]	0.658	0.443	–
COc1ccc(F)cc1C(=O)NCc1ccc(-c2nn([C@@H](C)C(F)(F)F)c(N)c2C(N)=O)cc1 [LOXO-305]	–	–	Combination index (CI) value, median [4]: 0.764; Combination index (CI) value, median (Human MCL cell line): 0.646
NC1(c2ccc(-c3nc4ccn5c(=O)[nH]nc5c4cc3-c3ccccc3)cc2)CCC1 [MK-2206]	0.626	0.915	–
